From patent US9457018B2, “Method for combating adverse effects arising from antipsychotic treatment” (Saniona A/S, priority 2008, dated 2016)

Assay: Olanzapine-induced weight gain in a rat model of antipsychotic drug induced obesity (three weeks study)
Format: in vivo, Female Sprague-Dawley (SPRD) rats
Settings: tesofensine 2.0 mg/kg s.c. co-treatment with olanzapine 2.0 mg/kg p.o. from day 15, for 7 days, female SPRD rats
Protocol: Female Sprague-Dawley (SPRD) rats were placed on 10% fat kcal futter. The rats were tagged subcutaneously with a microship in the neck and placed in an automatized food intake monitoring system. […] Co-administration of vehicle or tesofensine continued for 7 days in total. Body weight and food intake was measured on a daily basis, and body weight gain and cumulative food intake was calculated. Data were evaluated using a two-way ANOVA with Bonferroni's post-hoc test (daily body weight gain and food intake) or a one-way ANOVA with Tukey's post-hoc test.

In the case of CCOC[C@@H]1[C@@H](c2ccc(Cl)c(Cl)c2)C[C@@H]2CC[C@H]1N2C [tesofensine, (1R,2R,3S,5S)-3-(3,4-dichlorophenyl)-2-(ethoxymethyl)-8-methyl-8-azabicyclo[3.2.1]octane], the “effect on hypophagic response to olanzapine (food intake)” value is reported as “completely prevented”, the “effect on olanzapine-induced body weight gain” value is reported as “completely prevented” and the “effect on hypophagic response to olanzapine (food intake)” value (listed as Tesofensine) is reported as “prevents”. For the same molecule, the “effect on olanzapine-induced body weight gain” value (listed as Tesofensine) was “prevents”.
